Data reported in PubChem BioAssay (NCI).
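Values below derive from 48-hour exposures of cells grown in 96-well plates, with endpoints linearly interpolated between the two concentrations bracketing the appropriate inhibition level. GI50 marks 50% less growth. The concentration for full growth arrest is given as TGI.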

Tests used:
Test in all cases: NCI anticancer screen, dose series, 48 h
786-0 renal = tested on: 786-0 renal
A498 renal = tested on: A498 renal
A549 NSCLC = tested on: A549 NSCLC
ACHN renal = tested on: ACHN renal
BT-549 breast = tested on: BT-549 breast
CAKI-1 renal = tested on: CAKI-1 renal
COLO 205 colon = tested on: COLO 205 colon
EKVX NSCLC = tested on: EKVX NSCLC
HCC-2998 colon = tested on: HCC-2998 colon
HCT-116 colon = tested on: HCT-116 colon
HCT-15 colon = tested on: HCT-15 colon
HL-60(TB) leukemia = tested on: HL-60(TB) leukemia
HOP-62 NSCLC = tested on: HOP-62 NSCLC
HOP-92 NSCLC = tested on: HOP-92 NSCLC
HS 578T breast = tested on: HS 578T breast
HT29 colon = tested on: HT29 colon
IGROV1 ovarian = tested on: IGROV1 ovarian
K-562 leukemia = tested on: K-562 leukemia
KM12 colon = tested on: KM12 colon
LOX IMVI melanoma = tested on: LOX IMVI melanoma
M14 melanoma = tested on: M14 melanoma
MALME-3M melanoma = tested on: MALME-3M melanoma
MDA-MB-231 breast = tested on: MDA-MB-231 breast
MDA-MB-435 = tested on: MDA-MB-435
MOLT-4 leukemia = tested on: MOLT-4 leukemia
NCI-H226 lung = tested on: NCI-H226 lung
NCI-H460 lung = tested on: NCI-H460 lung
NCI-H522 lung = tested on: NCI-H522 lung
NCI/ADR-RES ovarian = tested on: NCI/ADR-RES ovarian
OVCAR-3 ovarian = tested on: OVCAR-3 ovarian
OVCAR-4 ovarian = tested on: OVCAR-4 ovarian
OVCAR-5 ovarian = tested on: OVCAR-5 ovarian
OVCAR-8 ovarian = tested on: OVCAR-8 ovarian
PC-3 prostate = tested on: PC-3 prostate
RXF 393 renal = tested on: RXF 393 renal
SF-268 CNS = tested on: SF-268 CNS
SF-295 CNS = tested on: SF-295 CNS
SF-539 CNS = tested on: SF-539 CNS
SK-MEL-2 melanoma = tested on: SK-MEL-2 melanoma
SK-MEL-28 melanoma = tested on: SK-MEL-28 melanoma
SK-MEL-5 melanoma = tested on: SK-MEL-5 melanoma
SK-OV-3 ovarian = tested on: SK-OV-3 ovarian
SN12C renal = tested on: SN12C renal
SNB-19 CNS = tested on: SNB-19 CNS
SNB-75 CNS = tested on: SNB-75 CNS
SR leukemia = tested on: SR leukemia
SW-620 colon = tested on: SW-620 colon
T-47D breast = tested on: T-47D breast
TK-10 renal = tested on: TK-10 renal
U251 CNS = tested on: U251 CNS
UACC-257 melanoma = tested on: UACC-257 melanoma
UACC-62 melanoma = tested on: UACC-62 melanoma
UO-31 renal = tested on: UO-31 renal

`OC1CCN(CCCOc2c3ccc(Cl)cc3nc3c2oc2ccc(Cl)cc23)CC1` was tested. Which GI50 (786-0 renal) did it give?
The GI50 was 1130 nM.

What about the TGI (786-0 renal) of the same compound?
The TGI was 2490 nM.

And the GI50 (A498 renal)?
The GI50 was 6740 nM.

And the TGI (A498 renal)?
The TGI was 21100 nM.

What about the GI50 (A549 NSCLC) of the same compound?
The GI50 was 1050 nM.

What about the TGI (A549 NSCLC) of the same compound?
The TGI was 2500 nM.

What about the GI50 (ACHN renal) of the same compound?
The GI50 was 504 nM.

And the TGI (ACHN renal)?
Its TGI is 1690 nM.

And the GI50 (BT-549 breast)?
The GI50 was 4510 nM.

And the TGI (BT-549 breast)?
Its TGI is 18900 nM.

And the GI50 (CAKI-1 renal)?
The GI50 was 877 nM.

And the TGI (CAKI-1 renal)?
The TGI was 2120 nM.

What about the GI50 (COLO 205 colon) of the same compound?
The GI50 was 1160 nM.

And the TGI (COLO 205 colon)?
Its TGI is 3180 nM.

What about the GI50 (EKVX NSCLC) of the same compound?
The GI50 was 2840 nM.

What about the TGI (EKVX NSCLC) of the same compound?
The TGI was 13200 nM.

What about the GI50 (HCC-2998 colon) of the same compound?
Its GI50 is 868 nM.

And the TGI (HCC-2998 colon)?
The TGI was 15800 nM.

What about the GI50 (HCT-116 colon) of the same compound?
The GI50 was 417 nM.

What about the TGI (HCT-116 colon) of the same compound?
Its TGI is 1590 nM.

And the GI50 (HCT-15 colon)?
The GI50 was 518 nM.

And the TGI (HCT-15 colon)?
Its TGI is 2070 nM.

What about the GI50 (HL-60(TB) leukemia) of the same compound?
Its GI50 is 1480 nM.

And the TGI (HL-60(TB) leukemia)?
Its TGI is 3230 nM.

What about the GI50 (HOP-62 NSCLC) of the same compound?
Its GI50 is 1850 nM.

What about the TGI (HOP-62 NSCLC) of the same compound?
Its TGI is 12500 nM.

And the GI50 (HOP-92 NSCLC)?
Its GI50 is 588 nM.

What about the TGI (HOP-92 NSCLC) of the same compound?
The TGI was 6770 nM.

And the GI50 (HS 578T breast)?
Its GI50 is 2750 nM.

And the TGI (HS 578T breast)?
Its TGI is 17200 nM.

What about the GI50 (HT29 colon) of the same compound?
The GI50 was 505 nM.

And the TGI (HT29 colon)?
Its TGI is 1770 nM.

And the GI50 (IGROV1 ovarian)?
Its GI50 is 1710 nM.

And the TGI (IGROV1 ovarian)?
Its TGI is 15000 nM.

What about the GI50 (K-562 leukemia) of the same compound?
The GI50 was 417 nM.

What about the TGI (K-562 leukemia) of the same compound?
The TGI was 1930 nM.

And the GI50 (KM12 colon)?
Its GI50 is 1060 nM.

And the TGI (KM12 colon)?
Its TGI is 3610 nM.

What about the GI50 (LOX IMVI melanoma) of the same compound?
Its GI50 is 298 nM.

And the TGI (LOX IMVI melanoma)?
The TGI was 1420 nM.

And the GI50 (M14 melanoma)?
The GI50 was 1430 nM.

What about the TGI (M14 melanoma) of the same compound?
Its TGI is 2840 nM.

What about the GI50 (MALME-3M melanoma) of the same compound?
Its GI50 is 1730 nM.

What about the TGI (MALME-3M melanoma) of the same compound?
Its TGI is 3480 nM.

And the GI50 (MDA-MB-231 breast)?
Its GI50 is 1260 nM.

And the TGI (MDA-MB-231 breast)?
Its TGI is 2870 nM.

And the GI50 (MDA-MB-435)?
The GI50 was 1340 nM.

What about the TGI (MDA-MB-435) of the same compound?
The TGI was 2700 nM.

What about the GI50 (MOLT-4 leukemia) of the same compound?
Its GI50 is 443 nM.

What about the TGI (MOLT-4 leukemia) of the same compound?
The TGI was 1960 nM.

What about the GI50 (NCI-H226 lung) of the same compound?
Its GI50 is 1670 nM.

What about the TGI (NCI-H226 lung) of the same compound?
Its TGI is 4130 nM.

What about the GI50 (NCI-H460 lung) of the same compound?
The GI50 was 465 nM.

What about the TGI (NCI-H460 lung) of the same compound?
Its TGI is 1990 nM.

And the GI50 (NCI-H522 lung)?
The GI50 was 1800 nM.

And the TGI (NCI-H522 lung)?
The TGI was 11100 nM.

What about the GI50 (NCI/ADR-RES ovarian) of the same compound?
The GI50 was 718 nM.

And the TGI (NCI/ADR-RES ovarian)?
Its TGI is 2770 nM.

And the GI50 (OVCAR-3 ovarian)?
The GI50 was 1560 nM.

What about the TGI (OVCAR-3 ovarian) of the same compound?
The TGI was 4120 nM.

What about the GI50 (OVCAR-4 ovarian) of the same compound?
Its GI50 is 1240 nM.

And the TGI (OVCAR-4 ovarian)?
The TGI was 2790 nM.

And the GI50 (OVCAR-5 ovarian)?
The GI50 was 1380 nM.

What about the TGI (OVCAR-5 ovarian) of the same compound?
Its TGI is 2850 nM.

And the GI50 (OVCAR-8 ovarian)?
Its GI50 is 1540 nM.

What about the TGI (OVCAR-8 ovarian) of the same compound?
The TGI was 18900 nM.

What about the GI50 (PC-3 prostate) of the same compound?
Its GI50 is 1230 nM.

What about the TGI (PC-3 prostate) of the same compound?
Its TGI is 2550 nM.

And the GI50 (RXF 393 renal)?
The GI50 was 1240 nM.

What about the TGI (RXF 393 renal) of the same compound?
Its TGI is 2520 nM.

And the GI50 (SF-268 CNS)?
The GI50 was 1150 nM.

What about the TGI (SF-268 CNS) of the same compound?
Its TGI is 4500 nM.

What about the GI50 (SF-295 CNS) of the same compound?
The GI50 was 3020 nM.

And the TGI (SF-295 CNS)?
The TGI was 15800 nM.

And the GI50 (SF-539 CNS)?
Its GI50 is 1360 nM.

And the TGI (SF-539 CNS)?
The TGI was 2670 nM.

And the GI50 (SK-MEL-2 melanoma)?
The GI50 was 5320 nM.

And the TGI (SK-MEL-2 melanoma)?
Its TGI is 17700 nM.

What about the GI50 (SK-MEL-28 melanoma) of the same compound?
Its GI50 is 1770 nM.

What about the TGI (SK-MEL-28 melanoma) of the same compound?
The TGI was 3180 nM.

What about the GI50 (SK-MEL-5 melanoma) of the same compound?
Its GI50 is 2230 nM.

And the TGI (SK-MEL-5 melanoma)?
Its TGI is 5030 nM.

What about the GI50 (SK-OV-3 ovarian) of the same compound?
The GI50 was 3370 nM.

What about the TGI (SK-OV-3 ovarian) of the same compound?
Its TGI is 15500 nM.

What about the GI50 (SN12C renal) of the same compound?
Its GI50 is 864 nM.

What about the TGI (SN12C renal) of the same compound?
Its TGI is 2380 nM.

And the GI50 (SNB-19 CNS)?
Its GI50 is 1450 nM.

What about the TGI (SNB-19 CNS) of the same compound?
Its TGI is 3220 nM.

And the GI50 (SNB-75 CNS)?
The GI50 was 2850 nM.

What about the TGI (SNB-75 CNS) of the same compound?
Its TGI is 16300 nM.

And the GI50 (SR leukemia)?
The GI50 was 595 nM.

What about the TGI (SR leukemia) of the same compound?
The TGI was 2620 nM.

What about the GI50 (SW-620 colon) of the same compound?
Its GI50 is 455 nM.

And the TGI (SW-620 colon)?
The TGI was 1790 nM.

What about the GI50 (T-47D breast) of the same compound?
Its GI50 is 5770 nM.

What about the TGI (T-47D breast) of the same compound?
Its TGI is 36500 nM.

What about the GI50 (TK-10 renal) of the same compound?
The GI50 was 3050 nM.

And the TGI (TK-10 renal)?
Its TGI is 8400 nM.

And the GI50 (U251 CNS)?
Its GI50 is 876 nM.

And the TGI (U251 CNS)?
The TGI was 2270 nM.

What about the GI50 (UACC-257 melanoma) of the same compound?
Its GI50 is 1790 nM.

And the TGI (UACC-257 melanoma)?
Its TGI is 3680 nM.

What about the GI50 (UACC-62 melanoma) of the same compound?
Its GI50 is 1830 nM.

And the TGI (UACC-62 melanoma)?
Its TGI is 3780 nM.

What about the GI50 (UO-31 renal) of the same compound?
The GI50 was 768 nM.

And the TGI (UO-31 renal)?
Its TGI is 2170 nM.
